Data set [1] is described as follows: In vivo mouse pharmacokinetics, paired oral co-dosing, plasma and brain. Details: species or system mice. As to conditions: for Cmax / Tmax / AUC / concentration at 0.25 hr / concentration at 0.5 hr / concentration at 1 hr / concentration at 2 hr / concentration at 4 hr / concentration at 6 hr / Kp: 10 mg/kg po co-dosed; for AUC: 0.25-6 hr sampling; for Kp: brain/plasma, read-out: B/P AUC Ratio. The procedure:
In a first study, the compounds of Examples 2 to 6 are compared to the Compound of Formula A (Example 1) using standard procedures in mice. In each test, two compounds are co-dosed in a single animal and the relative pharmacokinetics in plasma and brain is determined. Each test compound is dissolved in polyethylene glycol 400 vehicle, and administered orally at a dose of 10 mg/kg. After single dose oral administration of the test compounds together, plasma and brain levels are measured at 0.25, 0.5, 1, 2, 4, and 6 hours post-dosing. The mean values for maximum concentration, time to maximum concentration, and Area Under the Curve (AUC) for both compounds are determined. The results are summarized in the tables below for various paired co-dosing experiments: […]

The test system of another data set is human hepatocyte. Kind of data set: In vitro human hepatocyte stability assay. The class given is in vitro ADME. Particulars: human hepatocytes. The procedure: The compounds of Examples 1, 2, 5 and 6 are compared in a standard in vitro human hepatocyte stability assay run in duplicate. Compounds are provided as 1 M solutions in DMSO, and concentration of test compound is determined at 0.5, 1.0 and 4.0 hours after addition of the test compound. Results are shown below as a percentage of initial concentration.

The mark [2] stands for this setting: brain, read-out: Brain concentration.
Setting [3] is: plasma, read-out: Plasma concentration.

Read-outs that look alike come from different tables or passages of the source.

Consider `[2H]C(C(=O)[C@@]1([2H])CC[C@H]2[C@@H]3CC[C@H]4C[C@@](O)(COC([2H])([2H])[2H])CC[C@]4(C)[C@H]3CC[C@@]21C)n1ccnc1` (stereo partly drawn) [Example 5, 1-((3R,5S,8R,9S,10S,13S,14S,17S)-3-hydroxy-3-((methoxy-d3)methyl)-10,13-dimethylhexadecahydro-1H-cyclopenta[a]phenanthren-17-yl-17-d)-2-(1H-imidazol-1-yl)ethan-1-one-2-d], for which, in data set [1] (brain), the Cmax – broadly, the maximum level reached in the sampled fluid or tissue – is 5700 ng/g; the Tmax (in general, the time from dosing to the highest level) is 1 h; the AUC (in general, concentration integrated over time) came to 23500 ng·h/mL. In addition, in data set [1] (setting [2]), the concentration at 0.25 hr came to 3450 ng/g, the concentration at 0.5 hr stood at 5540 ng/g, the concentration at 1 hr turned out to be 5700 ng/g and the concentration at 2 hr was determined as 5100 ng/g. In data set [1] (setting [2]), the concentration at 4 hr turned out to be 3180 ng/g and the concentration at 6 hr was determined as 2240 ng/g. Moreover, the Kp in data set [1] worked out at 2.6. In data set [1] (plasma), the Cmax worked out at 2300 ng/mL, the Tmax is 1 h and the AUC was 8900 ng·h/mL. In addition, in data set [1] (setting [3]), the concentration at 0.25 hr was 1490 ng/mL, the concentration at 0.5 hr was found to be 1960 ng/mL, the concentration at 1 hr stood at 2300 ng/mL and the concentration at 2 hr came to 1770 ng/mL. For the same compound, in data set [1] (setting [3]), the concentration at 4 hr amounted to 1340 ng/mL and the concentration at 6 hr was determined as 725 ng/mL. Besides, the “percentage of initial concentration” value with human hepatocyte (0 hr) worked out at 100%. For the same compound, the “percentage of initial concentration” value in the data set with human hepatocyte (0.5 hr) stood at 83%. Also, the “percentage of initial concentration” value in the data set on human hepatocyte (1.0 hr) was determined as 80%. The “percentage of initial concentration” value with human hepatocyte (4.0 hr) worked out at 52%.
`[2H]c1nc([2H])n(C([2H])C(=O)[C@@]2([2H])CC[C@H]3[C@@H]4CC[C@H]5C[C@@](O)(COC([2H])([2H])[2H])CC[C@]5(C)[C@H]4CC[C@@]32C)c1[2H]` (stereo partly drawn) [Example 6, 1-((3R,5S,8R,9S,10S,13S,14S,17S)-3-hydroxy-3-((methoxy-d3)methyl)-10,13-dimethylhexadecahydro-1H-cyclopenta[a]phenanthren-17-yl-17-d)-2-(1H-imidazol-1-yl-d3)ethan-1-one-2-d]: in data set [1] (10 mg/kg po), the “brain exposure of drug compared to the non-deuterated compound of Example 1” value is “much higher” and the “brain/plasma AUC ratio compared to Example 1” value is “much higher”. For the same compound, in data set [1] (brain), the Cmax amounted to 5350 ng/g, the Tmax amounted to 1 h and the AUC came to 22400 ng·h/mL. Further, in data set [1] (setting [2]), the concentration at 0.25 hr came to 3300 ng/g, the concentration at 0.5 hr is 5350 ng/g, the concentration at 1 hr is 5300 ng/g and the concentration at 2 hr amounted to 4880 ng/g. Further, in data set [1] (setting [2]), the concentration at 4 hr was determined as 3060 ng/g and the concentration at 6 hr came to 2110 ng/g. Besides, the Kp in data set [1] was 2.7. In addition, in data set [1] (plasma), the highest level (Cmax) was 2120 ng/mL, the Tmax is 1 h and the AUC amounted to 8200 ng·h/mL. Further, in data set [1] (setting [3]), the concentration at 0.25 hr was found to be 1410 ng/mL, the concentration at 0.5 hr turned out to be 1850 ng/mL, the concentration at 1 hr was 2120 ng/mL and the concentration at 2 hr came out at 1650 ng/mL. Also, in data set [1] (setting [3]), the concentration at 4 hr stood at 1220 ng/mL and the concentration at 6 hr was 642 ng/mL. In addition, the “percentage of initial concentration” value in the data set with human hepatocyte (0 hr) was 100%. Besides, the “percentage of initial concentration” value in the data set on human hepatocyte (0.5 hr) came to 83%. For the same compound, the “percentage of initial concentration” value with human hepatocyte (1.0 hr) was determined as 69%. In addition, the “percentage of initial concentration” value in the data set on human hepatocyte (4.0 hr) is recorded as 45%.
For the compound `[2H]c1nc([2H])n(CC(=O)[C@H]2CC[C@H]3[C@@H]4CC[C@H]5C[C@@](O)(COC([2H])([2H])[2H])CC[C@]5(C)[C@H]4CC[C@]23C)c1[2H]` [Example 4, 1-((3R,5S,8R,9S,10S,13S,14S,17S)-3-hydroxy-3-((methoxy-d3)methyl)-10,13-dimethylhexadecahydro-1H-cyclopenta[a]phenanthren-17-yl)-2-(1H-imidazol-1-yl-d3)ethan-1-one], in data set [1] (10 mg/kg po), the “brain exposure of drug compared to the non-deuterated compound of Example 1” value is given as “much higher” and the “brain/plasma AUC ratio compared to Example 1” value was “much higher”. Further, in data set [1] (brain), the peak level (Cmax) was 6530 ng/g, the time to peak (Tmax) came to 1 h and the AUC came to 25000 ng·h/mL. Besides, in data set [1] (setting [2]), the concentration at 0.25 hr was 1710 ng/g, the concentration at 0.5 hr came to 5070 ng/g, the concentration at 1 hr came out at 6530 ng/g and the concentration at 2 hr was 5480 ng/g. In data set [1] (setting [2]), the concentration at 4 hr was 4200 ng/g and the concentration at 6 hr came to 1180 ng/g. In addition, the Kp in data set [1] turned out to be 2.7. In addition, in data set [1] (plasma), the Cmax stood at 2520 ng/mL, the Tmax was 1 h and the AUC turned out to be 9220 ng·h/mL. For the same compound, in data set [1] (setting [3]), the concentration at 0.25 hr worked out at 896 ng/mL, the concentration at 0.5 hr is 1490 ng/mL, the concentration at 1 hr is 2520 ng/mL and the concentration at 2 hr is 1950 ng/mL. Besides, in data set [1] (setting [3]), the concentration at 4 hr came to 1600 ng/mL and the concentration at 6 hr amounted to 423 ng/mL.
`[2H]C([2H])([2H])OC[C@@]1(O)CC[C@@]2(C)[C@@H](CC[C@@H]3[C@@H]2CC[C@]2(C)[C@@H](C(=O)Cn4ccnc4)CC[C@@H]32)C1` [Example 3, 1-((3R,5S,8R,9S,10S,13S,14S,17S)-3-hydroxy-3-((methoxy-d3)methyl)-10,13-dimethylhexadecahydro-1H-cyclopenta[a]phenanthren-17-yl)-2-(1H-imidazol-1-yl)ethan-1-one]: the “plasma and brain AUC values and B/P ratio compared to Example 1” value in data set [1] (10 mg/kg po) is given as “similar”. In data set [1] (brain), the Cmax was 2620 ng/g, the Tmax worked out at 1 h and the AUC was determined as 13200 ng·h/mL. In addition, in data set [1] (setting [2]), the concentration at 0.25 hr stood at 2200 ng/g, the concentration at 0.5 hr is 2000 ng/g, the concentration at 1 hr stood at 2620 ng/g and the concentration at 2 hr is 2370 ng/g. In data set [1] (setting [2]), the concentration at 4 hr came out at 2200 ng/g and the concentration at 6 hr stood at 1980 ng/g. For the same compound, the Kp in data set [1] came out at 1.2. Further, in data set [1] (plasma), the Cmax turned out to be 2420 ng/mL, the Tmax turned out to be 1 h and the exposure (AUC) worked out at 11300 ng·h/mL. Further, in data set [1] (setting [3]), the concentration at 0.25 hr was 2170 ng/mL, the concentration at 0.5 hr turned out to be 1570 ng/mL, the concentration at 1 hr stood at 2420 ng/mL and the concentration at 2 hr amounted to 2020 ng/mL. Besides, in data set [1] (setting [3]), the concentration at 4 hr was found to be 1810 ng/mL and the concentration at 6 hr amounted to 1720 ng/mL.

The values above are taken from patent publication US12325726B2, “Organic compounds” (priority 2018, dated 2025).
